1 molecule from patent US9006221B2, “Method of modulating ship activity” (H. Lee Moffitt Cancer Center and Reserach Institute, Inc., priority 2008, dated 2015) can be followed below.

Usually inhibition stands for the share of the control response that was lost under treatment.

The subject of assay [1] is human PBMC. Put plainly: Human one-way MLR with pre-treated PBMC stimulators. It is filed as cell-based. As to conditions: stimulator PBMC pre-treated 24 hr with 9.4 μM. The source says: FACS quantitation of Mac1^+Gr1^+ MIR cells in spleen (A) and lymph node (B) of C57BL/6 mice treated with the SHIP1 inhibitor (Compound), vehicle (Vehicle) or unmanipulated controls (Normal) as indicated. (C) Mixed-Leukocyte-Reactions (MLR) where splenocytes from SHIP1 inhibitor-treated C57BL6 (H2b) mice were used as stimulators for BALB/C (H2d) responders. In parallel splenocytes from either unmanipulated (Normal) or Vehicle treated C57BL6 mice were used as positive controls for the MLR. […] (D) Human PBMC were pre-treated for 24 hr with 3α-aminocholestane (Compound) or vehicle, irradiated and then used as stimulators for untreated PBMC from a different donor in a one-way MLR. […] Absolute peripheral blood granulocyte numbers were determined by an automated blood cell analyzer. […]
Mixed leukocyte reactions (MLR): Following RBC lysis, irradiated (2000 Rads) BL6 splenocytes (stimulators) at 8×10^5 cells/well were combined with BALB/c splenocytes (responders) at 4×10^5 cells/well in a one-way MLR assay. […] Incorporated [3H]thymidine was quantitated using a Packard TopCount NXT. Specific [3H]thymidine incorporation into genomic DNA was calculated as the average of the mean (±SEM) of sextuplicate wells. […]

The target of assay [2] is T1, SHIP1 (Mus musculus, UniProt Q9ES52).
T1 construct: The asterisk in lanes 1 and 3 indicates the ˜145 kD full-length SHIP protein; His tag (C); made in house; host or cells: E. coli Rosetta-Gami 2 (DE3) pLys
T1 sequence (Q9ES52 1-1191): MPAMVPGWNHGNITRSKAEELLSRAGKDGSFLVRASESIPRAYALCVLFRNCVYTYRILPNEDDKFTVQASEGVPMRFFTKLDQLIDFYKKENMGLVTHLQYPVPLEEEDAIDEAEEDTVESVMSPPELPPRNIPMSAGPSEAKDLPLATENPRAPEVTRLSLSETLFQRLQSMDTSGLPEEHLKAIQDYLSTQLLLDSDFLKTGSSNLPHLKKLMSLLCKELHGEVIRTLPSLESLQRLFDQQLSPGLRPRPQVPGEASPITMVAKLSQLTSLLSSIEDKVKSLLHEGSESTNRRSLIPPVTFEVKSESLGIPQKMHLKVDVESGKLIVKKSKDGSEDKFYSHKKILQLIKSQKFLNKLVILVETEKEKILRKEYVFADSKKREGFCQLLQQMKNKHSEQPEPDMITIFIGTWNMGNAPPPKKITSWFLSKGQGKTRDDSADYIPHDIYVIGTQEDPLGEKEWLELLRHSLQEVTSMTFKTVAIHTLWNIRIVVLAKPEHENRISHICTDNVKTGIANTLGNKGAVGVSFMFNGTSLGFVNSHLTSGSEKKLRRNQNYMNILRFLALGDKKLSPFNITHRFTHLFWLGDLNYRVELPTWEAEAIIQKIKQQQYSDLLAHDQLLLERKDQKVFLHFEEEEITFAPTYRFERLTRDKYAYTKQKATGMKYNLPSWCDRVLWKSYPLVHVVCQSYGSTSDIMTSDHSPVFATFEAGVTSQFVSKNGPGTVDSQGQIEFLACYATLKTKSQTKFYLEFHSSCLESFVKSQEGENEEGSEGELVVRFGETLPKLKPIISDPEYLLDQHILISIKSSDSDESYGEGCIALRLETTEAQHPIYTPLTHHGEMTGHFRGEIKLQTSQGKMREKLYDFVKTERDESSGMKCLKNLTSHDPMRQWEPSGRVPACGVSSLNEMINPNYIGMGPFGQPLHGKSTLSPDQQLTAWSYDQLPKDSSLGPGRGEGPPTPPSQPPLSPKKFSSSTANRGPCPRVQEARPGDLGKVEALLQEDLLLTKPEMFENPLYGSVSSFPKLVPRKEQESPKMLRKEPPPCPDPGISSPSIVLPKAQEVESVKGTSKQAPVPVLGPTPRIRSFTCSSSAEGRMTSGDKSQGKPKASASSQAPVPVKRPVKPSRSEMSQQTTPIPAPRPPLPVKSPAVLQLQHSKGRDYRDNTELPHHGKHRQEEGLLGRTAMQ
Put plainly: Fluorescence polarization (FP) assay of SHIP1 enzymatic activity. It is filed as biochemical. Conditions: 0.1 μg of recombinant SHIP1, FP assay. In general terms: In fluorescence polarisation assays a small probe gives low polarisation when free and higher when bound to something large.

Regarding `CC(C)CCC[C@@H](C)[C@H]1CC[C@H]2[C@@H]3CC[C@H]4C[C@H](N)CC[C@]4(C)[C@H]3CC[C@]12C` [NSC23922, (3R,5S,8R,9S,10S,13R,14S,17R)-10,13-dimethyl-17-[(2R)-6-methylheptan-2-yl]-2,3,4,5,6,7,8,9,11,12,14,15,16,17-tetradecahydro-1H-cyclopenta[a]phenanthren-3-amine], in assay [1], the “ability of pre-treated human PBMC to prime allogeneic responses by T cells from an unrelated donor” value was “significantly reduces”. Further, the inhibition at 10 µM in assay [2] was 50%.
